Test results: patent US11279944B2, “Of herbicide tolerance to 4-hydroxyphenylpyruvate dioxygenase (HPPD) inhibitors by down-regulation of HPPD expression in soybean” (BASF AGRICULTURAL SOLUTIONS SEED US LLC, priority 2017, dated 2022)

Assays:
[1] = system: soybean plants transformed by pCPE826 (Pf-Evo41+HPPD-Gm RNAi); assay: Field trial of the T1 generation, herbicide tolerance; details: in vivo
Text: (§1) The above result was confirmed in a field trial of the T1 generation.

[2] = system: soybean plants transformed by pMLS0519 (Pf-KGEPHSVV); assay: as above; assay type: in vivo; details: Puerto Rico, among the most effective constructs
Text: as §1

## CS(=O)(=O)c1cc(C(F)(F)F)ccc1C(=O)c1cnoc1C1CC1 [Isoxaflutole, (5-cyclopropyl-4-isoxazolyl)[2-(methylsulfonyl)-4-(trifluoromethyl)phenyl]methanone]
[1]
  tolerance to HPPD inhibitor: good tolerance
[2]
  tolerance to HPPD inhibitor: good tolerance
